Article PMC13047053, “Crystal structure of human INPP5K with an allosteric inhibitor reveals the structural basis for species specific potency” (Scientific Reports, 2026)

Biological target: T1, full-length human INPP5K (INPP5K-full) (Homo sapiens, UniProt Q9BT40)
T1 construct: full-length human INPP5K (amino acids 1–448, UniProt ID: Q9BT40); FLAG (N); made in house; host or cells: Expi293 cells (pcDNA3.4, transient)
T1 sequence (Q9BT40 1-448): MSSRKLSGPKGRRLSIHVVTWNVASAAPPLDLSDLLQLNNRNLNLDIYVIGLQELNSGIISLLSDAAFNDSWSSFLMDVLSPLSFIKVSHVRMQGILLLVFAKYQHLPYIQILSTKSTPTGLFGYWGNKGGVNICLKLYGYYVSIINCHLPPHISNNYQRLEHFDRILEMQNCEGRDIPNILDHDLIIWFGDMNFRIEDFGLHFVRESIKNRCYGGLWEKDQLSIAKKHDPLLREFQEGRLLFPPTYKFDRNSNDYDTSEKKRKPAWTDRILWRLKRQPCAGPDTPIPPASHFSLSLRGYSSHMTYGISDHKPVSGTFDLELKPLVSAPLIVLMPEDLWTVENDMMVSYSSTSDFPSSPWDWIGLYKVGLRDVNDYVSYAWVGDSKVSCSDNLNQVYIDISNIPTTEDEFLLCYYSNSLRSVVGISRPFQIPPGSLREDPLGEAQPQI
Assay: Fluorescence polarization assay to evaluate phosphatase inhibition
Type: biochemical
Conditions: 20 µM diC8-PI(3,4,5)P3, 30 min
From the text: The protein purification is described in detail elsewhere. Briefly, full-length human INPP5K (amino acids 1–448, UniProt ID: Q9BT40), rat INPP5K (aa 1–446, UniProt ID: Q9R0B6), mouse INPP5K (aa 1–468, UniProt ID: Q8C5L6), hamster INPP5K (aa 1–453, UniProt ID: G3HTF6), guinea pig INPP5K (aa 1–473, UniProt ID: H0V8T7) containing an N-terminal FLAG-tag, full-length human SHIP2 (aa 1–1 258) containing a C-terminal FLAG-tag, and full-length human PIPP (amino acids 1–1 006) containing an N-terminal His8-tag were all cloned into the pcDNA3.4 expression vector and transiently expressed in Expi293 cells (Thermo Fisher Scientific). […] The purity of the protein obtained was evaluated using SDS-PAGE.
HTS assays were performed as described previously. […] Fluorescence polarization was evaluated using an Envision plate reader (PerkinElmer, U.S. LLC, Shelton, CT, USA) at 531/595 nm (excitation/emission) and calculated as 1 000 × [(I||- (G × I⊥))/(I||+ (G × I⊥))], where I|| is the parallel intensity, I⊥ is the perpendicular intensity, and G = 2.25. The amount of diC8-PI(3,4)P₂ product (P) was determined by standard curve fitting, and the percentage inhibition was calculated using the following equation: 100 × (Pctrl—P)/(Pctrl—Pblank), where Pctrl is the no-inhibitor control and Pblank is the no-enzyme control. […]

CC(C)c1sc(NC(=O)c2ccccc2)c(C(=O)O)c1-c1ccccc1 [CPD-1]
IC50: 3.7 µM
